Measurements from US20070099963A1, “Nematicidal compositions and methods” (priority 2005, published 2007).

Experiments:
Thrips [1] = assay: Thrips damage rating on cotton plants (Example 1); type: in vivo; details: cotton Delta and Pineland variety 555, rating 1 = no damage, 5 = plant dead; for Thrips Damage Rating 3 weeks: 3 weeks after planting; for Thrips Damage Rating 4 weeks: 4 weeks after planting
Source text: This example illustrates the effect of a composition of the invention on cotton plant damage and plant height for cotton plants planted in soil known to have nematode (Rotylenchulus reniformis) pressure. The cotton plants utilized were commercially available Delta and Pineland variety 555.
The compositions described in Table 1 below were applied either as a seed treatment (Samples B, C, and E-G) or in furrow (Sample D) at the respective application rates set forth in Table 1.

Thrips [2] = assay: Thrips damage rating on cotton plants (Example 2); type: in vivo; details: Fibermax cotton variety 960, rating 1 = no damage, 5 = plant dead; for Thrips Damage Rating 3 weeks: 3 weeks after planting; for Thrips Damage Rating 4 weeks: 4 weeks after planting
Source text: This example illustrates the effect of the compositions from Table 1 for cotton plants planted in soil known to have nematode (Rotylenchulus reniformis) pressure. FIGS. 4 and 5 illustrate the Thrips damage ratings at three and four weeks, respectively, after planting. FIG. 6 illustrates the plant height seven weeks after planting. The cotton plants utilized were commercially available Fibermax cotton variety 960.

| Compound | Thrips Damage Rating 3 weeks (Thrips [1]) | Thrips Damage Rating 4 weeks (Thrips [1]) | Thrips Damage Rating 3 weeks (Thrips [2]) | Thrips Damage Rating 4 weeks (Thrips [2]) |
| --- | --- | --- | --- | --- |
| O=[N+]([O-])NC1=NCCN1Cc1ccc(Cl)nc1 [B, imidacloprid] | 2 | 2.3 | 2.63 | 2.5 |
| O=[N+]([O-])NC1=NCCN1Cc1ccc(Cl)nc1 [E, imidacloprid] | 2.25 | 2.4 | 2.88 | 3 |
| CNC(=O)O/N=C/C(C)(C)SC [Sample D, aldicarb] | 1.13 | 1.5 | 2.5 | 2.1 |
